Measurements as given in patent publication US8236510B2, “Protein showing enhanced expression in cancer cells” (Agensys, Inc., priority 1999, dated 2012).

Columns and labels:
[1] = test system: ERK phosphorylation in PC3-101P3A11 cells; assay: ERK phosphorylation in PC3-101P3A11 and PC3-neo cells (anti-Phospho-ERK Western blot); assay type: cell-based, human; conditions: PC3-101P3A11 cells
Method: Using Western blotting and other techniques, the ability of 101P3A11 to regulate these pathways is confirmed. Cells expressing or lacking 101P3A11 are either left untreated or stimulated with cytokines, androgen and anti-integrin antibodies. Cell lysates were analyzed using anti-phospho-specific antibodies (Cell Signaling, Santa Cruz Biotechnology) in order to detect phosphorylation and regulation of ERK, p38, AKT, PI3K, PLC and other signaling molecules. […] In the experiment, data shown in FIG. 26, control 3T3-neo and 3T3-101P3A11 cells were either treated with 0.5 or 10% FBS and whole cell lysates were analyzed by anti-phosphotyrosine Western blotting.
In this experiment, control PC3-neo cells and PC3-101P3A11 cells were left untreated (0.1% FBS) or were stimulated with 10% FBS, lipophosphatidic acid (LPA), gastrin releasing peptide (GRP), leukotriene (LKB4) or platelet activating factor (PAF). The cells were lysed and analyzed by Western blotting using anti-Phospho-ERK (FIG. 27A) or anti-ERK (FIG. 27B) mAb. […] In order to delineate the signaling pathway by which 101P3A11 mediates ERK phosphorylation in cancer cells, it was confirmed which of the two pathway inhibitors: MEK inhibitor PD98059 or the p38 inhibitor SB203580 regulate 101P3A11 mediated ERK phosphorylation (FIG. 28). […] Cells were lysed and analyzed by Western blotting using anti-Phospho-ERK or anti-ERK mAb. Treatment with 10% FBS or with GRP induced the phosphorylation of ERK in PC3-101P3A11 but not in control PC3-neo cells. 101P3A11-mediated ERK phosphorylation was inhibited by the MEK-1 inhibitor PD98059 but not the p38 inhibitor SB203580 or genistein.
Results in FIGS. 26-28 indicate that 101P3A11 regulates the activity of kinases, including ERK, and phosphatases. In order to confirm the association of 101P3A11 with phosphatase activity, the effect of the protein phosphatase inhibitor sodium orthovanadate on 101P3A11 mediated ERK phosphorylation was determined (FIG. 29). PC3-neo and PC3-101P3A11 cells were grown in media alone or in the presence of sodium orthovanadate (Na3VO4), and were stimulated with 0.1% or 10% FBS. Cells were lysed and analyzed by Western blotting using anti-Phospho-ERK or anti-ERK mAb. […] Results in FIG. 29 confirm the contribution of protein phosphatases to 101P3A11 mediated signaling.
In order to determine whether 101P3A11 signaling results in the activation of EGFR, we compared the effect of the EGFR inhibitor, AG1517, on EGFR- and 101P3A11-mediated ERK phosphorylation (FIG. 30). In FIG. 30, PC3-neo and PC3-101P3A11 cells were grown in media alone (0.1% FBS) or in the presence of AG1517. The cells were stimulated with 0.1% or 10% FBS, GRP or EGF, lysed and analyzed by Western blotting using anti-Phospho-ERK or anti-ERK mAb. Treatment with 10% FBS, GRP and EGF induced ERK phosphorylation in PC3-101P3A11 cells. […] Data in FIG. 30 indicate that some cross talk occurred between 101P3A11 and EGFR signaling pathways.
Since adenylate cyclase activity modulates intracellular levels of cAMP and induce downstream signaling events such as activation of protein kinase A, calcium and ERK MAPK signaling (Pierce K. L., et al, Oncogene. 2001, 20: 1532), we determined that PTX, an inhibitor of adenylate cyclase signaling, prevents 101P3A11-mediated ERK phosphorylation along with inhibiting cAMP accumulation (FIG. 33 and FIG. 34). PC3-neo and PC3-101P3A11 cells were grown overnight in 0.1% FBS in media alone or in the presence of pertussis toxin (PTX). Cells were stimulated with 0.1% or 10% FBS (FIG. 33) or 10% FBS, EGF or GRP (FIG. 34). Cells were lysed and analyzed by Western blotting using anti-Phospho-ERK mAb. Expression of 101P3A11 mediated ERK phosphorylation by 10% FBS in PC3 cells, which was inhibited by PTX (FIG. 33 and FIG. 34).
GPCR transmit their signal by activating trimeric G proteins. […]

[2] = test system: 3T3-101P3A11 tumors; assay: Subcutaneous growth of 3T3-101P3A11 tumors in SCID mice; assay type: in vivo
Method: (2) Regulated expression under control of an inducible vector system, such as ecdysone, tet, etc., can be used provided such promoters are compatible with the host cell systems. […] FIG. 21 compares subcutaneous growth of control 3T3-neo and 3T3-101P3A11 cells. One million cells stably expressing neo or 101P3A11 were injected subcutaneously in SCID mice along with matrigel. Tumor volume was evaluated by caliper measurements. […] Additionally, SCID mice were implanted with the same 3T3-101P3A11 cells orthotopically in the prostate to determine if 101P3A11 has an effect on local growth in the prostate or on the ability of the cells to metastasize, specifically to lungs or lymph nodes. […] In an analogous manner, cells can be implanted orthotopically in the bladder, colon or kidney. (Saffran, D., et al., PNAS 10:1073-1078; Fu, X., et al., Int. J. Cancer, 1991, 49: p. 938-939; Chang, S., et al., Anticancer Res., 1997, 17: p. 3239-3242; Peralta, E. A., et al., J. Urol., 1999, 162: p. 1806-1811). The tumor enhancing effect of 101P3A11 was also observed when 101P3A11 is expressed in prostate cancer cells such as PC3 and introduced into the prostate of SCID mice (Figure M11). A 2.5 fold increase in tumor weight is observed in tumors expressing 101P3A11 relative to control cells.
Furthermore, these assays is useful to confirm the anti-101P3A11 inhibitory effects of candidate therapeutic compositions, such as for example, 101P3A11 antibodies or intrabodies, and 101P3A11 antisense molecules or ribozymes, or 101P3A11 directed small molecules. In FIG. 22, we depict the effect of a small molecule, pertussis toxin (PTX) on tumor formation by 3T3-101P3A11 cells. In this experiment, SCID mice were injected with 3T3-101P3A11 alone or in conjunction with PTX. Each mouse was given 5 doses of PTX at 3-4 days interval. Tumor volume was evaluated by caliper measurements. […] Similarly, treatment with the G-protein inhibitor suramin inhibits the growth of 3T3-101P3A11 tumors (Figure M13).

pertussis toxin [PTX]
inhibition of FBS-mediated ERK phosphorylation ([1]; 10% FBS): inhibited
effect on GRP and EGF-mediated ERK phosphorylation ([1]; GRP or EGF): relatively unaffected
inhibition of tumor growth ([2]; 5 doses at 3-4 days interval, tumor volume by caliper): inhibits tumor growth in a dose dependent manner
inhibition of tumor growth ([2]; 5 doses at 3-4 days interval, tumor volume by caliper, listed as Pertussis toxin): inhibit
inhibition of tumor growth ([2]; 5 time per week, after 25 days): 70%
